Measured values from patent US4345938A, “Herbicidal 2-haloacetanilides” (Monsanto Company, priority 1980, dated 1982).

Assays:
Assay type in all cases: in vivo
Echinochloa crus-galli = assay: Upland seeded rice greenhouse test, barnyardgrass; conditions: Upland seeded rice, greenhouse
Experimental: (§1) In another comparative test in the greenhouse, the compound of Example 2 and Compound B were tested in Upland seeded rice. […] In contrast, Compound A, (a commercial rice herbicide), required 0.14 kg/ha (0.125 lb/A) to selectively control the same weed with rice safety also maintained at 1.12 kg/ha resulting in a selectivity factor of at least 8, i.e., less than one-half that of the compound of Example 2.

Upland seeded rice = Upland seeded rice greenhouse test, rice safety; conditions: Upland seeded rice, greenhouse; maximum test rate
Experimental: as §1

Velvetleaf = assay: Pre-emergent herbicidal test, Velvetleaf; further: ranges in brackets are in %
Source text: (§2) A good grade of top soil is placed in aluminum pans and compacted to a depth of three-eights to one-half inch from the top of the pan. On the top of the soil is placed a number of seeds or vegetative propagules of various plant species. The soil required to level fill the pans after seeding or adding vegetative propagules is weighted into a pan. The soil and a known amount of the active ingredient applied in a solvent or as a wettable powder suspension are thoroughly mixed, and used to cover the prepared pans. After treatment, the pans are moved into a greenhouse bench where they are watered by subirrigation as needed to give adequate moisture for germination and growth.
(§3) Approximately 2 weeks after seeding and treating, the plants were observed and the results recorded. The herbicidal rating was obtained by means of a fixed scale based on the percent injury of each plant species. The ratings are defined as follows: […]

Lambsquarters = assay: Pre-emergent herbicidal test, Lambsquarters; further: ranges in brackets are in %
Source text: as §2, §3

Smartweed = assay: Pre-emergent herbicidal test, Smartweed; further: ranges in brackets are in %
Source text: as §2, §3

Yellow Nutsedge = assay: Pre-emergent herbicidal test, Yellow Nutsedge; conditions: Table I; further: ranges in brackets are in %
Source text: as §2, §3

Quackgrass = assay: Pre-emergent herbicidal test, Quackgrass; conditions: Table I; further: ranges in brackets are in %
Source text: as §2, §3

Downy Brome = assay: Pre-emergent herbicidal test, Downy Brome; further: ranges in brackets are in %
Source text: as §2, §3

Barnyardgrass = assay: Pre-emergent herbicidal test, Barnyardgrass; further: ranges in brackets are in %
Source text: as §2, §3

Soybean = assay: Pre-emergent herbicidal test, Soybean; conditions: Table II; further: ranges in brackets are in %
Source text: as §2, §3
(§4) The compounds were further tested by utilizing the above procedure on the following plant species: […]

Wheat = assay: Pre-emergent herbicidal test, Wheat; conditions: Table II; further: ranges in brackets are in %
Source text: as §2, §3, §4

Rice = assay: Pre-emergent herbicidal test, Rice; conditions: Table II; further: ranges in brackets are in %
Source text: as §2, §3, §4

Sorghum = assay: Pre-emergent herbicidal test, Sorghum; conditions: Table II; further: ranges in brackets are in %
Source text: as §2, §3, §4

Panicum Spp. = assay: Pre-emergent herbicidal test, Panicum Spp.; further: ranges in brackets are in %; conditions: Table II
Source text: as §2, §3, §4

Compound: CCCCOCN(C(=O)CCl)c1c(CC)cccc1CC [Compound A, 2',6'-diethyl-N-(n-butoxymethyl)-2-chloroacetanilide]
- rate for selective control of Echinochloa crus-galli (Echinochloa crus-galli): 0.14 kg/ha
- selectivity factor, Echinochloa crus-galli in Upland seeded rice (Echinochloa crus-galli): at least 8
- rate at which rice safety is maintained (Upland seeded rice): ≥ 1.12 kg/ha

Compound: CCCCOc1cccc(CC)c1N(C)C(=O)CCl [Example 1, N-methyl-2'-n-butoxy-6'-ethyl-2-chloroacetanilide]
- Rating, Velvetleaf (Velvetleaf; Table I, 5.6 kg/h): 2 (50-74)
- Rating, Velvetleaf (Velvetleaf; Table I, 11.2 kg/h): 2 (50-74)
- Rating, Velvetleaf (Velvetleaf; Table II, 0.006 kg/h): 0 (0-24)
- Rating, Velvetleaf (Velvetleaf; Table II, 0.01 kg/h): 0 (0-24)
- Rating, Velvetleaf (Velvetleaf; Table II, 0.06 kg/h): 0 (0-24)
- Rating, Velvetleaf (Velvetleaf; Table II, 0.28 kg/h): 0 (0-24)
- Rating, Velvetleaf (Velvetleaf; Table II, 1.12 kg/h): 1 (25-49)
- Rating, Velvetleaf (Velvetleaf; Table II, 5.6 kg/h): 1 (25-49)
- Rating, Lambsquarters (Lambsquarters; Table I, 5.6 kg/h): 3 (75-100)
- Rating, Lambsquarters (Lambsquarters; Table I, 11.2 kg/h): 3 (75-100)
- Rating, Lambsquarters (Lambsquarters; Table II, 0.006 kg/h): 0 (0-24)
- Rating, Lambsquarters (Lambsquarters; Table II, 0.01 kg/h): 0 (0-24)
- Rating, Lambsquarters (Lambsquarters; Table II, 0.06 kg/h): 0 (0-24)
- Rating, Lambsquarters (Lambsquarters; Table II, 0.28 kg/h): 2 (50-74)
- Rating, Lambsquarters (Lambsquarters; Table II, 1.12 kg/h): 3 (75-100)
- Rating, Lambsquarters (Lambsquarters; Table II, 5.6 kg/h): 3 (75-100)
- Rating, Smartweed (Smartweed; Table I, 5.6 kg/h): 2 (50-74)
- Rating, Smartweed (Smartweed; Table I, 11.2 kg/h): 3 (75-100)
- Rating, Smartweed (Smartweed; Table II, 0.006 kg/h): 0 (0-24)
- Rating, Smartweed (Smartweed; Table II, 0.01 kg/h): 0 (0-24)
- Rating, Smartweed (Smartweed; Table II, 0.06 kg/h): 0 (0-24)
- Rating, Smartweed (Smartweed; Table II, 0.28 kg/h): 2 (50-74)
- Rating, Smartweed (Smartweed; Table II, 1.12 kg/h): 3 (75-100)
- Rating, Smartweed (Smartweed; Table II, 5.6 kg/h): 3 (75-100)
- Rating, Yellow Nutsedge (Yellow Nutsedge; 5.6 kg/h): 3 (75-100)
- Rating, Yellow Nutsedge (Yellow Nutsedge; 11.2 kg/h): 3 (75-100)
- Rating, Quackgrass (Quackgrass; 5.6 kg/h): 3 (75-100)
- Rating, Quackgrass (Quackgrass; 11.2 kg/h): 3 (75-100)
- Rating, Downy Brome (Downy Brome; Table I, 5.6 kg/h): 3 (75-100)
- Rating, Downy Brome (Downy Brome; Table I, 11.2 kg/h): 3 (75-100)
- Rating, Downy Brome (Downy Brome; Table II, 0.006 kg/h): 0 (0-24)
- Rating, Downy Brome (Downy Brome; Table II, 0.01 kg/h): 1 (25-49)
- Rating, Downy Brome (Downy Brome; Table II, 0.06 kg/h): 3 (75-100)
- Rating, Downy Brome (Downy Brome; Table II, 0.28 kg/h): 3 (75-100)
- Rating, Downy Brome (Downy Brome; Table II, 1.12 kg/h): 3 (75-100)
- Rating, Downy Brome (Downy Brome; Table II, 5.6 kg/h): 3 (75-100)
- Rating, Barnyardgrass (Barnyardgrass; Table I, 5.6 kg/h): 3 (75-100)
- Rating, Barnyardgrass (Barnyardgrass; Table I, 11.2 kg/h): 3 (75-100)
- Rating, Barnyardgrass (Barnyardgrass; Table II, 0.006 kg/h): 1 (25-49)
- Rating, Barnyardgrass (Barnyardgrass; Table II, 0.01 kg/h): 2 (50-74)
- Rating, Barnyardgrass (Barnyardgrass; Table II, 0.06 kg/h): 3 (75-100)
- Rating, Barnyardgrass (Barnyardgrass; Table II, 0.28 kg/h): 3 (75-100)
- Rating, Barnyardgrass (Barnyardgrass; Table II, 1.12 kg/h): 3 (75-100)
- Rating, Barnyardgrass (Barnyardgrass; Table II, 5.6 kg/h): 3 (75-100)
- Rating, Soybean (Soybean; 0.006 kg/h): 0 (0-24)
- Rating, Soybean (Soybean; 0.01 kg/h): 0 (0-24)
- Rating, Soybean (Soybean; 0.06 kg/h): 0 (0-24)
- Rating, Soybean (Soybean; 0.28 kg/h): 0 (0-24)
- Rating, Soybean (Soybean; 1.12 kg/h): 0 (0-24)
- Rating, Soybean (Soybean; 5.6 kg/h): 1 (25-49)
- Rating, Wheat (Wheat; 0.006 kg/h): 0 (0-24)
- Rating, Wheat (Wheat; 0.01 kg/h): 0 (0-24)
- Rating, Wheat (Wheat; 0.06 kg/h): 1 (25-49)
- Rating, Wheat (Wheat; 0.28 kg/h): 2 (50-74)
- Rating, Wheat (Wheat; 1.12 kg/h): 2 (50-74)
- Rating, Wheat (Wheat; 5.6 kg/h): 3 (75-100)
- Rating, Rice (Rice; 0.006 kg/h): 1 (25-49)
- Rating, Rice (Rice; 0.01 kg/h): 1 (25-49)
- Rating, Rice (Rice; 0.06 kg/h): 1 (25-49)
- Rating, Rice (Rice; 0.28 kg/h): 3 (75-100)
- Rating, Rice (Rice; 1.12 kg/h): 3 (75-100)
- Rating, Rice (Rice; 5.6 kg/h): 3 (75-100)
- Rating, Sorghum (Sorghum; 0.006 kg/h): 0 (0-24)
- Rating, Sorghum (Sorghum; 0.01 kg/h): 0 (0-24)
- Rating, Sorghum (Sorghum; 0.06 kg/h): 2 (50-74)
- Rating, Sorghum (Sorghum; 0.28 kg/h): 3 (75-100)
- Rating, Sorghum (Sorghum; 1.12 kg/h): 3 (75-100)
- Rating, Sorghum (Sorghum; 5.6 kg/h): 3 (75-100)
- Rating, Panicum Spp. (Panicum Spp.; 0.006 kg/h): 0 (0-24)
- Rating, Panicum Spp. (Panicum Spp.; 0.01 kg/h): 1 (25-49)
- Rating, Panicum Spp. (Panicum Spp.; 0.06 kg/h): 3 (75-100)
- Rating, Panicum Spp. (Panicum Spp.; 0.28 kg/h): 3 (75-100)
- Rating, Panicum Spp. (Panicum Spp.; 1.12 kg/h): 3 (75-100)
- Rating, Panicum Spp. (Panicum Spp.; 5.6 kg/h): 3 (75-100)
